The test system of data set [1] is Ras-CVLS processing in COS monkey kidney cells. Briefly: COS cell assay: Ras-CVLS processing (Western blot). The class given is cell-based. The following applies: COS cells, read-out: Inhibition of Ras Processing IC50. The method, boiled down:
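COS cells electroporated with Ras-CVLS (farnesyl transferase substrate) cDNA, with drug-containing fresh medium added at 24 h and cells examined at 48 h. TCA-precipitated cellular protein was resolved by SDS gel and immunoblotted with anti-p21 Ras monoclonal and HRP anti-rat IgG to monitor Ras processing.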

For data set [2], the system named is M27 (mouse Lewis lung carcinoma). Briefly: In vivo anti-tumor study, M27. Details: species or system athymic nu/nu female mice. The following applies: M27 tumor, 100 MPK, po, 10/wk. An excerpt:
In vivo Anti-tumor Studies

Data set [3] concerns the target T1, farnesyl protein transferase (FPT), partially purified from rat brain (Rattus norvegicus, UniProt Q02293+Q04631).
T1 construct: were partially purified from rat brain by ammonium sulfate fractionation followed by Q-Sepharose
The experiment in a line: Inhibition of farnesyl protein transferase (transfer of [3H]farnesyl to Ras-CVLS). Format: biochemical. The method, boiled down:
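Partially purified farnesyl protein transferase with His6-tagged val12-Ha-Ras-CVLS substrate and [3H]farnesyl pyrophosphate, 30 min at room temperature. Stopped with SDS/TCA, precipitated Ras collected on GF/C filters; percent inhibition relative to DMSO vehicle control.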

Data set [4] concerns Normal human HEPM fibroblasts. The experiment in a line: Cell Mat Assay: density of mat cells (mIC50). The class given is cell-based. The method, boiled down:
(§1)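 Serial compound dilutions added 24 h after planting T24-BAG4 cells onto a mat of normal cells, then 14 d colony growth; monolayers glutaraldehyde-fixed and tumor cells X-Gal stained. tIC50 and mIC50 from microscope counts of colonies, cells per colony and mat cell density.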

For data set [5], the system named is T24-BAG4 human bladder carcinoma cells expressing an activated H-ras gene. The experiment in a line: Cell Mat Assay: tumor cell colony inhibition (tIC50). Format: cell-based. The following applies: inhibition of tumor cell growth. In short, it runs like this: as §1
The test system of data set [6] is C-f-1 (mouse fibroblast transformed with c-fos oncogene). Briefly: In vivo anti-tumor study, C-f-1. Details: species or system athymic nu/nu female mice; concentration or dose not given beside the values. The conditions noted are these: s.c. tumor C-f-1; po, BID, 1-5, ×4.
The subject of data set [7] is A431 (human epidermal carcinoma). The experiment in a line: In vivo anti-tumor study, A431. Details: species or system athymic nu/nu female mice; concentration or dose not given beside the values. The following applies: s.c. tumor A431; po, BID, 1-6, ×4.
Data set [8] concerns SW620 (human colon adenocarcinoma [lymph node metastasis]). The experiment in a line: In vivo anti-tumor study, SW620. Details: species or system athymic nu/nu female mice; percent inhibition of tumor growth relative to vehicle controls: concentration or dose not given beside the values. The conditions noted are these: po; for percent inhibition of tumor growth relative to vehicle controls: s.c. tumor SW-620, BID, 1-5, ×4; for inhibition in vivo at 100 mg/kg: Mus musculus, SW-620, po; for inhibition in vivo at 100 mg/kg / Average % Tumor Inhibition: SW620 tumor, 10/wk, x4.

Where [9] appears, read: Ras-CVLS farnesylation, partially purified rat brain FPT, read-out: FPT IC50.

pIC50: −log10 of the molar value. Several values for one entry are separate records, joined by “and”; a condition that tells them apart may be missing. Identical values can stand only once. Like-named read-outs stand apart in the source and are kept apart here. Marks after values point to notes of the source that are not given here.

What is called pIC50 is the IC50 on a negative log10 scale, so that one unit is a factor of ten. Usually melting point stands for the temperature, or range, at which the solid turns liquid. The term inhibition in vivo denotes how much of the control response was suppressed.

T1 sequence (Q02293 whole entry, one chain of several): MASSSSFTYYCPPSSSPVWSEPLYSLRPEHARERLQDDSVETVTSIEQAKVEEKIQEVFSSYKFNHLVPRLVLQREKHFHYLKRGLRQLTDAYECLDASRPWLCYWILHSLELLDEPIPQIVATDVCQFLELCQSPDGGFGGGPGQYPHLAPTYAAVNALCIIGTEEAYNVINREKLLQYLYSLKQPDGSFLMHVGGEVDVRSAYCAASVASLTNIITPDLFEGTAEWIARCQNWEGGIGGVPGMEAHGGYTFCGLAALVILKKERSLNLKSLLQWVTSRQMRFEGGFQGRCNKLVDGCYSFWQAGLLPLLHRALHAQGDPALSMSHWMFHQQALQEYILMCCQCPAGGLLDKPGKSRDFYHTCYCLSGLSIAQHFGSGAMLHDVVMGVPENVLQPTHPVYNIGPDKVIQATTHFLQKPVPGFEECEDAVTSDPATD

`O=C(Cc1cccc([N+](=O)[O-])c1)N1CCC(=C2c3ccc(Cl)cc3CCc3cccnc32)CC1` [Example 45] returned a melting point of 94.3 to 95.5 °C. The pIC50 in data set [1] (Primates, COS) was 5.38. For the same molecule, in data set [2] (x3), the “Average % Tumor Inhibition” value was 0%. The pIC50 in [3] (setting [9]) was 5.92 and 6.06. The molecule further gave a pIC50 in [4] (Homo sapiens, Fibroblast) of less than 4.30. Further, the pIC50 in [5] (Homo sapiens) is 5.20.

In the case of `Cc1ccc(CC(=O)N2CCC(=C3c4ccc(Cl)cc4CCc4cccnc43)CC2)cc1` [Example 47], the pIC50 is 4.95 in data set [1]; 5.89 and 6.00 in [3] (setting [9]); less than 4.30 in data set [4]; 4.90 in [5]. For the same molecule, the “Average % Tumor Inhibition” value in data set [2] (x3) worked out at 19%.

Regarding `O=C(Cc1ccncc1)N1CCN(C2c3ccc(Cl)cc3CCc3cccnc32)CC1` (stereo not shown) [Example 75], the “percent inhibition of tumor growth relative to vehicle controls” value in [6] is given as 20%; in data set [7] it was 34.5%; in data set [8], 43.4%. The “Average % Tumor Inhibition” value in [2] (x4) worked out at 0%. Besides, the pIC50 was 6.44 and 6.80 in data set [3] (FPT IC50, Ras-CVLS farnesylation, partially purified rat brain FPT); less than 4.30 in data set [4] (Homo sapiens, Fibroblast); 5.60 in data set [5] (Homo sapiens).

Turning to `O=C(C(c1ccccc1)c1ccccc1)N1CCN(C2c3ccc(Cl)cc3CCc3cccnc32)CC1` (stereo not shown) [Example 79], the “percent inhibition of tumor growth relative to vehicle controls” value in data set [6] was 25%; in data set [7], 0%; in [8], 26.7%. For the same molecule, the pIC50 in data set [1] (Primates, COS) is 5.29; in [3] (setting [9]) it was 5.60; in data set [3] (enzyme inhibition, read-out: FPT IC50), 5.60; in [4] (Homo sapiens, Fibroblast) it was less than 4.30; in [5] (Homo sapiens), 4.90.

`O=C(Cc1cccnc1)N1CCC(C2c3ccc(Cl)cc3CCc3cccnc32)CC1` (stereo not shown) [Example 82A, 4-(8-Chloro-6,11-dihydro-5H-benzo-[5,6]cyclohepta(1,2-b]pyridin-11-yl)-1-[(3-pyridinyl)acetyl]-piperidine] had a melting point of 81.7 to 82 °C. The molecule further displayed an inhibition in vivo at 100 mg/kg in data set [8] (100 MPK) of 27%.

For the molecule `S=C(c1ccncc1)N1CCC(=C2c3ccc(Cl)cc3CCc3cccnc32)CC1` [Example 88], the pIC50 in data set [1] was less than 4.92; in data set [3] (setting [9]), 6.00; in [4] it was less than 4.30. The “Average % Tumor Inhibition” value is 19% in data set [2] (x4); 4% and 0% in data set [8] (25 MPK, listed as Ex. 88, 25 mg/kg); 30% in [8] (50 MPK); 43.25* % and 38% and 37% and 27.4* % and 28% in [8] (100 MPK, listed as Ex. 88, 100 mg/kg).

In the case of `O=C(Cc1ccc(O)c(O)c1)N1CCC(=C2c3ccc(Cl)cc3CCc3cccnc32)CC1` [Example 127], the “Average % Tumor Inhibition” value in data set [2] (x3) is 22%. Besides, the pIC50 is 5.46 and 5.57 in data set [3] (setting [9]); less than 4.30 in data set [4] (Homo sapiens, Fibroblast); 5.20 in [5] (Homo sapiens). In data set [8] (100 MPK), this molecule displayed an inhibition in vivo at 100 mg/kg of 25%.

Values taken from patent US20030055065A1, “Tricyclic amide and urea compounds useful for inhibition of G-protein function and for treatment of proliferative diseases” (priority 1993, published 2003).
